Measured values from PubChem BioAssay AID1195 (EPA DSSTox, 2008).

Tested on: human maximum recommended daily dose, FDA database
Assay: DSSTox (FDAMDD) FDA Maximum (Recommended) Daily Dose Database
Settings: active compounds read low
Method in brief: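 MRDD values come from clinical trials with daily oral dosing, usually for 3–12 months, for the average adult, in mg/day converted to mg/kg-bw/day assuming 60 kg. Antineoplastic mg/m2 doses are divided by 37. Activity score maps log10(1/MRDD mmol) onto 1–100.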

[1] = TherapeuticCategory: antihypertensive
[2] = TherapeuticCategory: antibacterial
[3] = TherapeuticCategory: skeletal muscle relaxant
[4] = TherapeuticCategory: antihyperlipoproteinemic
[5] = TherapeuticCategory: anticoagulant
[6] = TherapeuticCategory: diagnostic aid

## NS(=O)(=O)c1cc(C2(O)NC(=O)c3ccccc32)ccc1Cl (stereo not drawn)
TherapeuticCategory: diuretic, antihypertensive
  maximum recommended daily dose (mmol/kg-bw/day): 0.00246

## CCCCCCCCCC(=O)OCCN1CCN(CCCN2c3ccccc3Sc3ccc(C(F)(F)F)cc32)CC1
TherapeuticCategory: antispsychotic
  maximum recommended daily dose (mmol/kg-bw/day): 0.000563

## C#CCN(C)Cc1ccccc1
[1]
  maximum recommended daily dose (mmol/kg-bw/day): 0.0209

## CCC(C)CON=O (stereo not drawn)
TherapeuticCategory: none
  maximum recommended daily dose (mmol/kg-bw/day): 0.0427

## Cc1nc(N/C(N)=N/S(=O)(=O)c2ccc(N)cc2)oc1C
[2]
  maximum recommended daily dose (mmol/kg-bw/day): 0.129

## CC1CCN(CCCC(=O)c2ccc(F)cc2)CC1
TherapeuticCategory: neuroleptic
  maximum recommended daily dose (mmol/kg-bw/day): 0.0253

## C#C[C@]1(O)CC[C@H]2[C@@H]3CCc4cc(OC)ccc4[C@H]3CC[C@@]21C
TherapeuticCategory: estrogen
  maximum recommended daily dose (mmol/kg-bw/day): 2.67e-06

## CC(=O)Nc1ccc(O)cc1
TherapeuticCategory: analgesic, antipyretic
  maximum recommended daily dose (mmol/kg-bw/day): 0.331

## COc1ccc2cc1Oc1cc3c(cc1OC)CC[N+](C)(C)[C@H]3Cc1ccc(cc1)Oc1c(OC)c(OC)cc3c1[C@@H](C2)[N+](C)(C)CC3
[3]
  maximum recommended daily dose (mmol/kg-bw/day): 0.000441

## O=C(OCC(COC(=O)c1cccnc1)(COC(=O)c1cccnc1)COC(=O)c1cccnc1)c1cccnc1
[4]
  maximum recommended daily dose (mmol/kg-bw/day): 0.00719

## CCN(CC)CCOC(=O)c1ccc(N)cc1Cl
TherapeuticCategory: local anesthetic
  maximum recommended daily dose (mmol/kg-bw/day): 0.0308

## CCCC[N+]1(C)[C@@H]2CC(OC(=O)[C@H](CO)c3ccccc3)C[C@H]1[C@@H]1O[C@@H]12 (stereo partly drawn)
TherapeuticCategory: antispasmotic
  maximum recommended daily dose (mmol/kg-bw/day): 0.00302

## CCN1/C(=C/C=C/C=C/c2sc3ccccc3[n+]2CC)Sc2ccccc21
TherapeuticCategory: anthelmintic
  maximum recommended daily dose (mmol/kg-bw/day): 0.00642

## CC(Cc1ccc(O)cc1)NCC(O)c1cc(O)cc(O)c1 (stereo not drawn)
TherapeuticCategory: bronchodilator, tocolytic
  maximum recommended daily dose (mmol/kg-bw/day): 8.8e-05

## CC1=C(CC(=O)O)c2cc(F)ccc2/C1=C/c1ccc(S(C)=O)cc1 (stereo not drawn)
TherapeuticCategory: anti inflammatory
  maximum recommended daily dose (mmol/kg-bw/day): 0.0187

## CCOC(=O)n1ccn(C)c1=S
TherapeuticCategory: thyroid inhibitor
  maximum recommended daily dose (mmol/kg-bw/day): 0.00537

## CC(C)(Oc1ccc(C2CC2(Cl)Cl)cc1)C(=O)O (stereo not drawn)
[4]
  maximum recommended daily dose (mmol/kg-bw/day): 0.00578

## CC(=O)CC(c1ccccc1)c1c(O)c2ccccc2oc1=O (stereo not drawn)
[5]
  maximum recommended daily dose (mmol/kg-bw/day): 0.000542

## O=C1c2ccccc2C(=O)C1c1ccccc1
[5]
  maximum recommended daily dose (mmol/kg-bw/day): 0.015

## O=C(CCCCC(=O)Nc1c(I)cc(I)c(C(=O)O)c1I)Nc1c(I)cc(I)c(C(=O)O)c1I
[6]
  maximum recommended daily dose (mmol/kg-bw/day): 0.147

## O=C(O)COc1ccc(C(=O)c2cccs2)c(Cl)c1Cl
TherapeuticCategory: diuretic, uricosuric, antihypertensive
  maximum recommended daily dose (mmol/kg-bw/day): 0.0252

## CC(=O)N(c1onc(C)c1C)S(=O)(=O)c1ccc(N)cc1
[2]
  maximum recommended daily dose (mmol/kg-bw/day): 0.216

## CCCCC[C@H](O)/C=C/[C@H]1[C@H](O)CC(=O)[C@@H]1CCCCCCC(=O)O
TherapeuticCategory: vasodilator
  maximum recommended daily dose (mmol/kg-bw/day): 2.82e-07

## CC[N+]1(CC)CCC(=C(c2ccccc2)c2ccccc2)C1C (stereo not drawn)
TherapeuticCategory: antispasmodic
  maximum recommended daily dose (mmol/kg-bw/day): 0.00518

## NC(=O)CC[C@H](N)C(=O)O
TherapeuticCategory: none
  maximum recommended daily dose (mmol/kg-bw/day): 1.37

## CC(=O)OCC1=C(C(=O)O)N2C(=O)[C@@H](NC(=O)CC#N)[C@H]2SC1
[2]
  maximum recommended daily dose (mmol/kg-bw/day): 0.295

## COc1ccc(CC2c3cc(OC)c(OC)cc3CC[N+]2(C)CCC(=O)OCCCCCOC(=O)CC[N+]2(C)CCc3cc(OC)c(OC)cc3C2Cc2ccc(OC)c(OC)c2)cc1OC (stereo not drawn)
[3]
  maximum recommended daily dose (mmol/kg-bw/day): 0.000402

## CN1CCN(C2=Nc3ccccc3Sc3ccc(Cl)cc32)CC1
TherapeuticCategory: antipsychotic
  maximum recommended daily dose (mmol/kg-bw/day): 0.000727

## CO/N=C(/C(=O)N[C@@H]1C(=O)N2C(C(=O)O)=C(COC(C)=O)CS[C@H]12)c1csc(N)n1
[2]
  maximum recommended daily dose (mmol/kg-bw/day): 0.439

## CC(CCc1ccccc1)NCC(O)c1ccc(O)c(C(N)=O)c1 (stereo not drawn)
[1]
  maximum recommended daily dose (mmol/kg-bw/day): 0.122

## Nc1ccc(S(=O)(=O)c2ccc(N)cc2)cc1
TherapeuticCategory: antibacterial, dermatitis herpetiformis suppressant
  maximum recommended daily dose (mmol/kg-bw/day): 0.0201

## CCC1(CC)C(=O)NC(=O)N(C)C1=O
TherapeuticCategory: anticonvulsant
  maximum recommended daily dose (mmol/kg-bw/day): 0.0252

## COc1ccc2c(c1)C(=O)N(CCc1ccc(S(=O)(=O)NC(=O)NC3CCCCC3)cc1)C(=O)C2(C)C
TherapeuticCategory: antidiabetic
  maximum recommended daily dose (mmol/kg-bw/day): 0.0019

## O=C1C[C@@H]2OCC=C3CN4CC[C@]56c7ccccc7N1[C@H]5[C@H]2[C@H]3C[C@H]46
TherapeuticCategory: rat poison
  maximum recommended daily dose (mmol/kg-bw/day): 0.00209

## Nc1ncnc2c1ncn2[C@@H]1O[C@H](COP(=O)(O)O)[C@@H](O)[C@H]1O
TherapeuticCategory: antiarrhythmic
  maximum recommended daily dose (mmol/kg-bw/day): 0.000959

## C#C[C@]1(O)CC[C@H]2[C@@H]3CCC4=CCCC[C@@H]4[C@H]3C(=C)C[C@@]21CC
TherapeuticCategory: progestogen
  maximum recommended daily dose (mmol/kg-bw/day): 8.05e-06

## CN(C(=O)CC(=O)N(C)c1c(I)c(C(=O)NC(CO)C(O)CO)c(I)c(C(=O)NC(CO)C(O)CO)c1I)c1c(I)c(C(=O)NC(CO)C(O)CO)c(I)c(C(=O)NC(CO)C(O)CO)c1I (stereo not drawn)
[6]
  maximum recommended daily dose (mmol/kg-bw/day): 0.0615

## CCNCC(O)c1cccc(O)c1 (stereo not drawn)
TherapeuticCategory: antihypotensive
  maximum recommended daily dose (mmol/kg-bw/day): 0.0046
